Test results published in ChEMBL document CHEMBL1255297, “Genomewide screening for genes associated with gliotoxin resistance and sensitivity in Saccharomyces cerevisiae” (2008).
Converted amounts (≈) assume the structure as drawn.

Key:
Format in all cases: functional
[1] = tested on: Saccharomyces cerevisiae; experiment: Antimicrobial activity against Saccharomyces cerevisiae containing disruption in CYS3 gene by broth microdilution method
[2] = tested on: Saccharomyces cerevisiae; experiment: Antimicrobial activity against Saccharomyces cerevisiae containing disruption in MEF2 gene by broth microdilution method
[3] = tested on: Saccharomyces cerevisiae; experiment: Antimicrobial activity against Saccharomyces cerevisiae containing disruption in […] gene by broth microdilution method
[4] = tested on: Saccharomyces cerevisiae; experiment: Antimicrobial activity against Saccharomyces cerevisiae containing disruption in IFA38 gene by broth microdilution method
[5] = tested on: Saccharomyces cerevisiae; experiment: Antimicrobial activity against Saccharomyces cerevisiae containing disruption in SNF1 gene by broth microdilution method
[6] = tested on: Saccharomyces cerevisiae; experiment: Antimicrobial activity against Saccharomyces cerevisiae containing disruption in YOR345C gene by broth microdilution method
[7] = tested on: Saccharomyces cerevisiae; experiment: Antimicrobial activity against Saccharomyces cerevisiae containing disruption in YGL235W gene by broth microdilution method
[8] = tested on: Saccharomyces cerevisiae; experiment: Antimicrobial activity against Saccharomyces cerevisiae containing disruption in RTG2 gene by broth microdilution method
[9] = tested on: Saccharomyces cerevisiae; experiment: Antimicrobial activity against wild type Saccharomyces cerevisiae BY4741 by broth microdilution method
[10] = tested on: Saccharomyces cerevisiae; experiment: Antimicrobial activity against Saccharomyces cerevisiae containing disruption in YGL072C gene by broth microdilution method
[11] = tested on: Saccharomyces cerevisiae; experiment: Antimicrobial activity against Saccharomyces cerevisiae containing disruption in RAD18 gene by broth microdilution method
[12] = tested on: Saccharomyces cerevisiae; experiment: Antimicrobial activity against Saccharomyces cerevisiae containing disruption in YKL037W gene by broth microdilution method
[13] = tested on: Saccharomyces cerevisiae; experiment: Antimicrobial activity against Saccharomyces cerevisiae containing disruption in APL2 gene by broth microdilution method
[14] = tested on: Saccharomyces cerevisiae; experiment: Antimicrobial activity against Saccharomyces cerevisiae containing disruption in YLR456W gene by broth microdilution method

SMILES | MIC [1] [µg/mL] | MIC [2] [µg/mL] | MIC [3] [µg/mL] | MIC [4] [µg/mL] | MIC [5] [µg/mL] | MIC [6] [µg/mL] | MIC [7] [µg/mL] | MIC [8] [µg/mL] | MIC [9] [µg/mL] | MIC [10] [µg/mL] | MIC [11] [µg/mL] | MIC [12] [µg/mL] | MIC [13] [µg/mL] | MIC [14] [µg/mL]
C[C@@H]1[C@H](O)[C@@H](C)/C=C/C=C/C=C/C=C/C=C/C=C/C=C/[C@H](O[C@@H]2O[C@H](C)[C@@H](O)[C@H](N)[C@@H]2O)C[C@@H]2O[C@](O)(C[C@@H](O)C[C@@H](O)[C@H](O)CC[C@@H](O)C[C@@H](O)CC(=O)O[C@H]1C)C[C@H](O)[C@H]2C(=O)O [AMPHOTERICIN B] | 0.25 (≈ 0.271 µM) | 0.25 (≈ 0.271 µM) | 0.5 (≈ 0.541 µM) | 0.5 (≈ 0.541 µM) | 0.5 (≈ 0.541 µM) | 0.5 (≈ 0.541 µM) | 0.5 (≈ 0.541 µM) | 0.5 (≈ 0.541 µM) | 0.125 (≈ 0.135 µM) | 0.5 (≈ 0.541 µM) | 0.5 (≈ 0.541 µM) | 0.25 (≈ 0.271 µM) | 0.5 (≈ 0.541 µM) | 0.5 (≈ 0.541 µM)
CC[C@H](C)C[C@H](C)CCCCCCCCC(=O)N[C@H]1C[C@@H](O)[C@@H](NCCN)NC(=O)[C@@H]2[C@@H](O)CCN2C(=O)[C@H]([C@H](O)CCN)NC(=O)[C@H]([C@H](O)[C@@H](O)c2ccc(O)cc2)NC(=O)[C@@H]2C[C@@H](O)CN2C(=O)[C@H]([C@@H](C)O)NC1=O [CASPOFUNGIN] | 0.028 (≈ 0.0256 µM) | 0.028 (≈ 0.0256 µM) | 0.007 (≈ 0.0064 µM) | 0.007 (≈ 0.0064 µM) | 0.007 (≈ 0.0064 µM) | 0.007 (≈ 0.0064 µM) | 0.007 (≈ 0.0064 µM) | 0.007 (≈ 0.0064 µM) | 0.007 (≈ 0.0064 µM) | 0.007 (≈ 0.0064 µM) | 0.007 (≈ 0.0064 µM) | 0.028 (≈ 0.0256 µM) | 0.007 (≈ 0.0064 µM) | 0.007 (≈ 0.0064 µM)
C[C@@H]1C[C@@H]([C@H](O)CC2CC(=O)NC(=O)C2)C(=O)[C@@H](C)C1 [CYCLOHEXIMIDE] | 0.025 (≈ 0.0889 µM) | 0.025 (≈ 0.0889 µM) | 0.025 (≈ 0.0889 µM) | 0.025 (≈ 0.0889 µM) | 0.025 (≈ 0.0889 µM) | 0.025 (≈ 0.0889 µM) | 0.025 (≈ 0.0889 µM) | 0.025 (≈ 0.0889 µM) | 0.025 (≈ 0.0889 µM) | 0.025 (≈ 0.0889 µM) | 0.025 (≈ 0.0889 µM) | 0.025 (≈ 0.0889 µM) | 0.025 (≈ 0.0889 µM) | 0.025 (≈ 0.0889 µM)
OC(Cn1cncn1)(Cn1cncn1)c1ccc(F)cc1F [FLUCONAZOLE] | 32 (≈ 104 µM) | 32 (≈ 104 µM) | 16 (≈ 52.2 µM) | 16 (≈ 52.2 µM) | 16 (≈ 52.2 µM) | 16 (≈ 52.2 µM) | 16 (≈ 52.2 µM) | 16 (≈ 52.2 µM) | 32 (≈ 104 µM) | 16 (≈ 52.2 µM) | 16 (≈ 52.2 µM) | 32 (≈ 104 µM) | 16 (≈ 52.2 µM) | 16 (≈ 52.2 µM)
CN1C(=O)[C@]23CC4=CC=C[C@H](O)[C@H]4N2C(=O)[C@@]1(CO)SS3 [GLIOTOXIN] | 0.06 (≈ 0.184 µM) | 0.06 (≈ 0.184 µM) | 2 (≈ 6.13 µM) | 2 (≈ 6.13 µM) | 8 (≈ 24.5 µM) | 16 (≈ 49 µM) | 8 (≈ 24.5 µM) | 8 (≈ 24.5 µM) | 0.5 (≈ 1.53 µM) | 16 (≈ 49 µM) | 8 (≈ 24.5 µM) | 0.125 (≈ 0.383 µM) | 8 (≈ 24.5 µM) | 8 (≈ 24.5 µM)
